Results taken from patent US20160331742A1, “TREATMENT OF CROHN'S DISEASE USING LOW DOSES OF LAQUINIMOD” (Teva Pharmaceutical Industries, Ltd., priority 2014, published 2016).

Columns and labels:
[1] = tested on: subjects suffering from active moderate to severe Crohn's disease; test: Phase III open-label 64-week induction and maintenance study of laquinimod in Crohn's disease patients; format: in vivo, human; conditions: 0.25 mg/day oral vs 0.5 mg/day, Example 3
Protocol: A phase III, randomized, open-label 64-week induction and maintenance study of laquinimod is conducted in Crohn's disease patients,
One capsule containing laquinimod 0.25 mg or laquinimod 0.5 mg is administered orally once daily at the same hour:
Response at Week 12 in those induction studies is defined as a Crohn's Disease Activity Index (COAT) reduction, of at least 70 points from Baseline. It is anticipated that many non-responders received placebo in the induction studies, so that TV5600-IMM-30011 is their first opportunity to be exposed to any dose of laquinimod. No new patients are included in this study.
Treatment duration is up to 64 weeks. The initial phase of the treatment duration is 12 weeks. Scheduled in-clinic visits are conducted at Baseline (Week 0, Visit 1) and at Weeks 2, 4, 8, and 12. The Baseline visit (Week 0, Visit 1) for this study is the same as the Week 12 visit in the relevant induction study (i.e., not an additional visit). Some additional procedures may be performed on this day, as a part of the TV5600-114M-30011 protocol but not the induction study protocol. Unscheduled visits for safety or for any other reason are conducted at any time during the study. At Week 12 (and at subsequent visits), patients undergo a clinical assessment and are offered either release from the study or continuation of maintenance therapy at the existing dose. […]

[2] = tested on: subjects suffering from active moderate to severe Crohn's disease; test: Phase III randomized, double-blind, placebo-controlled study of oral laquinimod in active moderate to severe Crohn's disease (12 weeks); format: in vivo, human; conditions: 0.25 mg/day oral vs 0.5 mg/day, Example 1
Protocol: A phase III, multicenter, randomized, double-blind, placebo-controlled study is conducted to evaluate Laquinimod in active moderate to severe Crohn's disease. There are ˜540 Crohn's disease patients enrolled, divided into 3 arms of ˜180 patients, randomized in a […] ratio (˜180 subjects on laquinimod 0.25 mg, ˜180 on laquinimod 0.5 mg, and ˜180 on placebo). One or more capsules containing laquinimod 0.25 mg, laquinimod 0.5 mg, or matching placebo are administered orally once daily; A loading dose regimen of double the maintenance/intended dose is given during the first two days of study drug treatment. Thereafter, starting on day 3, the daily maintenance/intended dose is administered. Patients with moderate to severe Crohn's disease (CD), as determined by a Crohn's Disease Activity Index (CDM) score of 220-450 (inclusive) and evidence of active endoscopic inflammatory disease, based on Crohn's Disease Endoscopic index of Severity (CDEIS) score >6 points. […] The timing of the ileocelonosoopy is arranged so that it takes place after the last day on which data are recorded for the CDAI assessment. […] Each endoscopy is recorded, and then read and scored by a central reader for endoscopic scores of CDEIS and SES-CD. […]

[3] = cited from earlier work
[4] = tested on: subjects suffering from active moderate to severe Crohn's disease; test: Phase III randomized, double-blind, placebo-controlled 52-week maintenance of remission study of laquinimod in Crohn's disease patients; format: in vivo, human; conditions: 0.25 mg/day oral vs 0.5 mg/day, Example 2
Protocol: A phase III, randomized, double-blind, placebo-controlled 52-week maintenance of remission study of laquinimod is conducted in Crohn's disease patients.
One or more capsules containing laquinimod 0.25 mg, laquinimod 0.5 mg, or matching placebo are administered orally once daily (QD)
Patients with a Response at Week 12 in any of the induction studies, TV5500-IMM-30009, TV5600-IMM-30012, or TV5500-IMM-10013, are re-randomized into this placebo-controlled maintenance study. Response at Week 12 in those induction studies is defined as a Crohn's Disease Activity Index (CDAI) reduction of at least 10 points from Baseline at Week 12. No new patients are included in this maintenance study. […]
Ileonclonoscopy is performed at Baseline Week 12b Visit from the induction study) and Week 52 to directly assess endoscopic disease and mucosal healing. The timing of the ileocolonoscopy is arranged so that it takes place after the final day on which data is recorded for the Week 52 CDAI assessment, and allows time for adequate ileocolonoscopy preparation; consequently, the Week 52 ileocolcnoscopy is performed separately from but within 7 days of) the other Week 52 assessments each endosoopy is recorded, read, and scored by a central reader for an endoscopic score of cDEIS, and mucosal healing determination, […]

## CCN(C(=O)c1c(O)c2c(Cl)cccc2n(C)c1=O)c1ccccc1 [laquinimod]
[1]
  adverse effects of 0.25 mg/day as compared to 0.5 mg/day: maintaining or reducing adverse effects
  efficacy of 0.25 mg/day as compared to 0.5 mg/day (symptoms, clinical response, remission, CDAI, CRP, fecal calprotectin, IBDQ, WPAI:CD, EQ-5D): at least as effective, or mare effective
[2]
  adverse effects of 0.25 mg/day as compared to 0.5 mg/day: maintaining or reducing adverse effects
  efficacy of 0.25 mg/day as compared to 0.5 mg/day (symptoms, clinical response, remission, CDAI, CDEIS, mucosal healing, CRP, fecal calprotectin, IBDQ, WPAI:CD, EQ-5D): at least as effective, or more effective
[3]
  oral bioavailability: high
[4]
  adverse effects of 0.25 mg/day as compared to 0.5 mg/day: maintaining or reducing adverse effects
  efficacy of 0.25 mg/day as compared to 0.5 mg/day (symptoms, clinical response, remission, CDAI, CDEIS, mucosal healing, CRP, fecal calprotectin, IBDQ, WPAI:CD, EQ-5D): at least as effective, or more effective
